In ChEMBL document CHEMBL1149826, “Chemical constituents and diversity of Ligularia lankongensis in Yunnan Province of China” (2008):
The source made the active and inactive calls. The calls are words filed in the database; no cut-off is given here.

System: Bacillus subtilis
Experiment: Antibacterial activity against Bacillus subtilis PCI219 assessed as inhibition zone diameter at […] after 24 hrs by paper disk diffusion assay
Type: functional

Compound	zone of inhibition at 10 mg/kg (PCI219, 24 h, read-out: IZ) [mm]	Activity
CC[C@H]1OC(=O)[C@H](C)[C@@H](O[C@H]2C[C@@](C)(OC)[C@@H](O)[C@H](C)O2)[C@H](C)[C@@H](O[C@@H]2O[C@H](C)C[C@H](N(C)C)[C@H]2O)[C@](C)(O)C[C@@H](C)C(=O)[C@H](C)[C@@H](O)[C@]1(C)O [ERYTHROMYCIN]	31	
C=C(C(CC1OC1(C)C)OC(=O)/C(C)=C\C)[C@H]1[C@H](OC(=O)/C(C)=C\C)[C@H]2O[C@@]2(C)[C@@H](O)[C@H]1OC(=O)/C(C)=C\C (some centres not stated)		Active
